Assay results published in ChEMBL document CHEMBL3045707, “Synthesis of new 3-aryl-4-(3-aryl-4,5-dihydro-1H-pyrazol-5-yl)-1-phenyl-1H-pyrazole derivatives as potential antimicrobial agents” (2013).

How the values were obtained:
Format in all cases: functional
[1] = tested on: Aspergillus flavus; assay: Antimicrobial activity against Aspergillus flavus assessed as diameter of growth inhibition zone at 500 ug/ml after 72 hr by agar well plate method; settings: read-out: DIZ
[2] = tested on: Chrysosporium keratinophilum; assay: Antimicrobial activity against Chrysosporium keratinophilum assessed as diameter of growth inhibition zone at 500 ug/ml after 72 hr by agar well plate method; settings: read-out: DIZ
[3] = tested on: Staphylococcus aureus; assay: Antimicrobial activity against Staphylococcus aureus ATCC 25923 assessed as diameter of growth inhibition zone at 1000 ug/ml after 24 hr by agar well plate method; settings: ATCC 25923, 24 h, read-out: DIZ
[4] = tested on: Aspergillus flavus; assay: Antimicrobial activity against Aspergillus flavus assessed as diameter of growth inhibition zone at 1000 ug/ml after 72 hr by agar well plate method; settings: read-out: DIZ
[5] = tested on: Candida albicans; assay: Antimicrobial activity against Candida albicans MTCC 227 assessed as diameter of growth inhibition zone at 500 ug/ml after 72 hr by agar well plate method; settings: MTCC 227, 72 h, read-out: DIZ
[6] = tested on: Chrysosporium keratinophilum; assay: Antimicrobial activity against Chrysosporium keratinophilum assessed as diameter of growth inhibition zone at 1000 ug/ml after 72 hr by agar well plate method; settings: read-out: DIZ
[7] = tested on: Escherichia coli; assay: Antimicrobial activity against Escherichia coli ATCC 25922 assessed as diameter of growth inhibition zone at 1000 ug/ml after 24 hr by agar well plate method; settings: ATCC 25922, 24 h, read-out: DIZ
[8] = tested on: Staphylococcus aureus; assay: Antimicrobial activity against Staphylococcus aureus ATCC 25923 assessed as diameter of growth inhibition zone at 500 ug/ml after 24 hr by agar well plate method; settings: ATCC 25923, 24 h, read-out: DIZ
[9] = tested on: Candida albicans; assay: Antimicrobial activity against Candida albicans MTCC 227 assessed as diameter of growth inhibition zone at 1000 ug/ml after 72 hr by agar well plate method; settings: MTCC 227, 72 h, read-out: DIZ
[10] = tested on: Escherichia coli; assay: Antimicrobial activity against Escherichia coli ATCC 25922 assessed as diameter of growth inhibition zone at 500 ug/ml after 24 hr by agar well plate method; settings: ATCC 25922, 24 h, read-out: DIZ
[11] = tested on: Pseudomonas aeruginosa; assay: Antimicrobial activity against Pseudomonas aeruginosa ATCC 27853 assessed as diameter of growth inhibition zone at 500 ug/ml after 24 hr by agar well plate method; settings: ATCC 27853, 24 h, read-out: DIZ
[12] = tested on: Pseudomonas aeruginosa; assay: Antimicrobial activity against Pseudomonas aeruginosa ATCC 27853 assessed as diameter of growth inhibition zone at 1000 ug/ml after 24 hr by agar well plate method; settings: ATCC 27853, 24 h, read-out: DIZ

Row | Structure (SMILES) | zone of inhibition at 500 µg/mL [1] [mm] | zone of inhibition at 500 µg/mL [2] [mm] | zone of inhibition at 1000 µg/mL [3] [mm] | zone of inhibition at 1000 µg/mL [4] [mm] | zone of inhibition at 500 µg/mL [5] [mm] | zone of inhibition at 1000 µg/mL [6] [mm] | zone of inhibition at 1000 µg/mL [7] [mm] | zone of inhibition at 500 µg/mL [8] [mm] | zone of inhibition at 1000 µg/mL [9] [mm] | zone of inhibition at 500 µg/mL [10] [mm] | zone of inhibition at 500 µg/mL [11] [mm] | zone of inhibition at 1000 µg/mL [12] [mm]
1 | CSc1ccc(C2=NN(c3ccccc3)C(c3cn(-c4ccccc4)nc3-c3ccc(Br)cc3)C2)cc1 (centres undefined) | 3 | 5 | 9 | 4 | 2 | 6 | 7 | 7 | 4 | 6 | 6 | 8
2 | OC(Cn1cncn1)(Cn1cncn1)c1ccc(F)cc1F [FLUCONAZOLE] | 10 | 15 |  | 13 | 20 | 17 |  |  | 22 |  |  | 
3 | COc1ccc(-c2nn(-c3ccccc3)cc2C2CC(c3ccc(-c4ccccc4)cc3)=NN2c2ccccc2)cc1 (centres undefined) | 0 | 0 | 4 | 0 | 0 | 0 | 4 | 2 | 0 | 2 | 2 | 5
4 | CSc1ccc(C2=NN(c3ccccc3)C(c3cn(-c4ccccc4)nc3-c3ccccc3)C2)cc1 (centres undefined) | 0 | 0 | 2 | 0 | 0 | 0 | 3 | 0 | 0 | 1 | 2 | 3
5 | Clc1ccc(-c2nn(-c3ccccc3)cc2C2CC(c3ccc(Cl)cc3Cl)=NN2c2ccccc2)cc1 (centres undefined) | 2 | 2 | 7 | 4 | 2 | 5 | 6 | 4 | 4 | 4 | 6 | 8
6 | COc1ccc(-c2nn(-c3ccccc3)cc2C2CC(c3ccc(Cl)cc3Cl)=NN2c2ccccc2)cc1 (centres undefined) | 0 | 0 | 4 | 0 | 0 | 0 | 3 | 3 | 0 | 2 | 1 | 4
7 | COc1ccc(-c2nn(-c3ccccc3)cc2C2CC(c3ccc(SC)cc3)=NN2c2ccccc2)cc1 (centres undefined) | 0 | 0 | 4 | 0 | 0 | 0 | 2 | 3 | 0 | 1 | 2 | 4
8 | CSc1ccc(C2=NN(c3ccccc3)C(c3cn(-c4ccccc4)nc3-c3ccc(Cl)cc3)C2)cc1 (centres undefined) | 2 | 1 | 8 | 3 | 1 | 3 | 5 | 5 | 3 | 4 | 4 | 7
9 | Clc1ccc(C2=NN(c3ccccc3)C(c3cn(-c4ccccc4)nc3-c3ccc(Br)cc3)C2)c(Cl)c1 (centres undefined) | 1 | 2 | 8 | 4 | 1 | 4 | 8 | 6 | 3 | 5 | 5 | 5
10 | Brc1ccc(-c2nn(-c3ccccc3)cc2C2CC(c3ccc(-c4ccccc4)cc3)=NN2c2ccccc2)cc1 (centres undefined) | 5 | 3 | 6 | 6 | 4 | 4 | 9 | 4 | 5 | 6 | 5 | 7
11 | Clc1ccc(C2=NN(c3ccccc3)C(c3cn(-c4ccccc4)nc3-c3ccccc3)C2)c(Cl)c1 (centres undefined) | 0 | 0 | 0 | 0 | 0 | 0 | 0 | 0 | 0 | 0 | 0 | 0
12 | CN[C@@H]1[C@H](O[C@H]2[C@H](O[C@H]3[C@H](O)[C@@H](O)[C@H](N=C(N)N)[C@@H](O)[C@@H]3N=C(N)N)O[C@@H](C)[C@]2(O)C=O)O[C@@H](CO)[C@H](O)[C@H]1O [STREPTOMYCIN] |  |  | 15 |  |  |  | 16 | 10 |  | 10 | 13 | 16
13 | Clc1ccc(-c2nn(-c3ccccc3)cc2C2CC(c3ccc(-c4ccccc4)cc3)=NN2c2ccccc2)cc1 (centres undefined) | 3 | 3 | 8 | 5 | 2 | 4 | 7 | 6 | 5 | 5 | 6 | 4
